# Assay results published in patent publication US20210244712A1, “METHODS FOR TREATING PATIENTS WITH CANCER HAVING DEFECTS IN CYCLIN D REGULATION” (NysnoBio Ireland DAC, priority 2018, published 2021).
# Entries after “also recorded” stand apart in the source; their conditions may differ.
# Tests used:
# Assay type in all cases: cell-based
# Rb = test: Western blot of cellular biomarker Rb
# Experimental: (§1) Various cancer cells lines were treated with Compound 42 or palbociclib (control) to measure the expression of cyclin D, cyclin E, pRb, and Rb.
# (§2) Day 1: 6 well plate was seeded with 3×10^5 cells/well with a final volume of 3 mL and incubated for 24 hours at 37° C.
# (§3) Day 2: The media was removed and Compound 42 (see below for dose) or palbociclib (1 μM) as positive control were added to the wells the desired concentration in cell culture media, giving a final volume of 3 mL per well. The plate was incubated for 24 hours at 37° C. (or desired period).
# (§4) Day 3: The media was removed from wells and washed ×3 with PBS. 500 μl of trypsin was added to the wells and incubate until cells detach. 500 μl media was added to neutralise trypsin, transferred to 2 ml Eppendorfs, and centrifuged (1500 RPM for 5 minutes). While spinning, the wells were washed with 1 mL PBS to collect any remaining cells. This wash was used to centrifuged cell pellet. After the first spin, the supernatant was discarded and the pellet was washed with PBS collected from the previous step. The centrifugation step was repeated and the supernatant was discarded and the pellet wash again with fresh PBS. The centrifugation and wash with PBS was repeated one more time. RIPA cell lysate buffer was prepared and Protease Inhibitor Cocktail was included. The supernatant was discarded and […] RIPA cell lysate buffer was added to the pellet. The protein concentration was determined using the BCA assay kit.
# Day 4: Western blot analysis was performed. 4-12% Bis-Tris gel and MOPS running buffer was used. The running buffer was made to sufficient volume of running buffer to 1× concentration. 20 μg protein (v/v loading & reducing buffer) of each sample was loaded into wells. Some proteins may require more, or less, protein loaded. The gel was ran at standard settings 200 V for 45 minutes. […] The membrane was blocked using 5% non-fat powdered milk* made up in 1×TBS containing 0.1% Tween (TBS-T and incubated for 1 hr with gentle rocking. The observation from the Western blot analysis is quantified in FIGS. 2-7D. […]
# Cyclin D [1] = test: Mechanistic study: Cyclin D western blot with or without epoxomicin; details: ES-2, 18 hours
# Experimental: In order to establish that the decrease in Cyclin D seen after Compound 42 treatment is due to proteasomal degradation, ES-2, ovarian cancer cell line was treated with Compound 42 (250 nM) in the presence or absence of epoxomicin, a specific inhibitor of the proteasome (60 nM) for 18 hours. Following the treatment, western blotting for Cyclin D (FIG. 10A), Ub (FK-2) (FIG. 10B), and GAPDH control (bottom blot, below FIGS. 10A and 10B) was performed. Epoxomicin is a specific inhibitor of the proteasome.
# OAW28 [2] = test: Cell proliferation assay; details: Homo sapiens, OAW-28
# OAW28 [3] = test: Senescence quantification (SA-βGal); details: OAW28, loss of Rb expression
# Experimental: Day 1: 96 well plate was seeded with 4000 cells/well and incubated for 24 hours at 37° C.
# Day 2: Compound 42 (50, 100, or 150 nM) or palbociclib (1 μM) as positive control were added to the wells and the plate was incubated for 96 hours at 37° C.
# Day 6: Senescence cells histochemical Staining Kit (Sigma) was used. The growth medium form the cells were aspirated then washed twice with fresh […]. […] 100 μL filtered Fixation Buffer was added per well and the plate was incubated for 6-7 minutes at room temperature. Then, the cells were rinsed 3 times with PBS. 50 μL of the Staining Mixture was added per well and incubated at 37° C. overnight without CO2 (staining is pH dependent). After staining, the Staining Mixture was removed, PBS and Hoechst dye (1 μg/mL) were added. Ten images were taken with Epifluorescence Microscope using the blue filter and 10 images were taken in the brightfield. The images were used to count the total cell number—the positive blue cells were counted in the bright field. The percentage of cells expressing β-galactosidase was calculated.
# Method 1: Mammalian β-Galactosidase Assay Kit (Thermo Scientific) was used. […] The cells were washed once with PBS. […] The absorbance was measured at 405 nm. […]
# Method 2: Assay of a portion of the lysate. […] 25 μL of lysate was removed and use it for Protein Quantification (BCA). […]
# Cyclin D [4] = test: Western blot of cellular biomarker cyclin D
# Experimental: as §1, §2, §3, §4
# (§5) Day 4: Western blot analysis was performed. 4-12% Bis-Tris gel and MOPS running buffer was used. The running buffer was made to sufficient volume of running buffer to 1× concentration. 20 μg protein (v/v loading & reducing buffer) of each sample was loaded into wells. Some proteins may require more, or less, protein loaded. The gel was ran at standard settings 200 V for 45 minutes. Once gel has run, the gel was transferred for 7 minutes using the iBlot Blotting System. The membrane was blocked using 5% non-fat powdered milk* made up in 1×TBS containing 0.1% Tween (TBS-T and incubated for 1 hr with gentle rocking. The observation from the Western blot analysis is quantified in FIGS. 2-7D.
# Cell line JEKO-1 (mantle cell line with cyclin D chromosome translocation, amplification of cyclin D) was treated with DMSO (control), 500 nM of Compound 42, or 1 μM of Palbociclib. Treated cells were incubated for 48 hours and data represented in FIGS. 6A-6C represents n=1.
# cyclin D1 = test: Western blot of cellular biomarker cyclin D1
# Experimental: as §1, §2, §3, §4, §5
# Cell lines A2780 (ovarian cell line with no cyclin D pathway mutations), ES-2 (ovarian cell line with cyclin D amplification, p53 mutation), OAW42, and SW626 were treated with DMSO (control), 250 nM of Compound 42, or 1 μM of Palbociclib. Treated cells were incubated for 24 hours and data represented in FIGS. 2-5 represents n=3.
# [5] = HT116, with increasing concentration
smiles,measurement,setting,value
"Cc1ccccc1C(=O)Nc1nc(NC(=O)c2ccccc2C)n(-c2ccc(OC(F)(F)F)cc2)n1 [Compound 42, N,N′-(1-(4-(trifluoromethoxy)phenyl)-1H-1,2,4-triazole-3,5-diyl)bis(2-methylbenzamide)]",Rb expression,"Rb; ES-2, 250 nM Compound 42, 24 hours, compared to palbociclib 1 μM",reduction of Rb expression
same,Rb expression,Rb; [5],reduction
same,Rb expression,"Rb; OAW42, 250 nM Compound 42, 24 hours, compared to palbociclib 1 μM",reduction of Rb expression
same,cyclin D levels,Cyclin D [1]; Compound 42 250 nM alone,induced cyclin D levels to decrease
same,cyclin D levels,"Cyclin D [1]; Compound 42 250 nM alone, listed as compound 42",decreases cyclin D levels
same,cyclin D levels,Cyclin D [1]; Compound 42 250 nM in the presence of epoxomicin 60 nM,returned cyclin D levels to normal (or slightly above)
same,cyclin D levels,"Cyclin D [1]; Compound 42 250 nM in the presence of epoxomicin 60 nM, listed as compound 42",counterbalanced by adding epoxomicin
same,IC50,"OAW28 [2]; Ovarian OAW28, overexpression of Cyclin D, loss of p16 (mutant p53), loss of RB",0.14 µM
same,EC50,"OAW28 [2]; Table 7a, Ovarian (OAW28)",0.114 µM
same,cell senescence,OAW28 [3],not observed; also recorded: no senescence; also recorded: += weak senescence due to loss of RB
same,normalization of cyclin D,"Cyclin D [4]; HCT-116 (p16 mutation), Compound 42 250 nM, Palbociclib 1 μM",normalized cyclic D
same,cyclin D expression,Cyclin D [4]; [5],reduction
same,cyclin D expression,"Cyclin D [4]; JEKO-1, 500 nM Compound 42, 48 hours, compared to palbociclib 1 μM",reduction of cyclin E and cyclin D expression
same,cyclin D expression,Cyclin D [4]; OAW28,decreased
same,Cyclin D1 expression,"cyclin D1; A2780, 250 nM Compound 42, 1 μM Palbociclib, 24 hours",reduction of cyclin D1 expressions
same,Cyclin D1 expression,"cyclin D1; ES-2, 250 nM Compound 42, 1 μM Palbociclib, 24 hours",reduction of cyclin D1 expressions
same,Cyclin D1 expression,cyclin D1; [5],reduction
same,Cyclin D1 expression,"cyclin D1; OAW42, 250 nM Compound 42, 1 μM Palbociclib, 24 hours",reduction of cyclin D1 expressions
same,Cyclin D1 expression,"cyclin D1; SW626, 250 nM Compound 42, 1 μM Palbociclib, 24 hours",reduction of cyclin D1 expressions
